# Laboratory results from patent publication US5446029A, “Anti-retroviral activity of 2',3'-dideoxy-3'-fluoronucleosides” (Medivir AB, priority 1986, dated 1995).
# Like-named read-outs stand apart in the source and are kept apart here.
# Key:
# [1] = biological target: DNA polymerase of hepatitis B virus (HBV) (Hepatitis B virus genotype D subtype ayw, UniProt P03156); assay: Inhibition of hepatitis B virus (HBV) DNA polymerase, cell free assay (Test I); format: biochemical
# Source text: The HBV associated DNA polymerase activity can be measured in vitro (Kaplan et al., J. Virol., 12,995-1005, 1973). A slight modification of this method has been used to test the substance for inhibition of this DNA polymerase activity. (Nordenfelt E., (Oberg, B., Helgstrand E. and Miller E. Acta path., Microbiol. Scand. Sect B, 88:169-175, 1980). With this assay the 3'-deoxy-3'-fluorothymidine-5'-triphosphate has been tested, instead of the prodrug 3'-deoxy- 3'-fluorothymidine, to evaluate its potential against hepatitis B virus DNA polymerase.
# 3'-deoxy-3'-fluorothymidine-5'-triphosphate was added to the final concentrations of 0.01 μM, 0.05 μM, 0.1 μM, 0.5 μM and 1.0 μM in the reaction mixture. The inhibition is calculated after 3 hours incubation at 37° C. and based on cpm compared to control with added water.
# [2] = biological target: T1, reverse transcriptase of HIV (HTLV-III/LAV) (Human immunodeficiency virus type 1 group M subtype B, UniProt P04585); assay: Inhibition of HIV (HTLV-III/LAV) reverse transcriptase, cell free assay (Test II); format: biochemical
# T1 construct: reverse transcriptase of HIV (HTLV-III/LAV) in cell free assay
# Protocol: The assay was performed as described by Vrang et Oberg, Antimicrob. Agents Chemother. 29,867-872 (1986).
# [3] = test system: HIV (HTLV-III/LAV) in H9 cells
# Protocol: MATERIAL AND METHODS; HIV INFECTION OF H9 CELLS
# The cells were then pelleted and dispersed in 2.5 ml phosphate buffered saline (PBS) including 2 μg/ml Polybrene. After incubation for 30 min the cells were pelleted and infected with HIV. After an adsorption period of 1 hour the cells were pelleted and washed once with 2.5 ml PBS. […] Samples for reverse transcriptase activity tests were taken as indicated.
# 1.3 ml samples from the supernatant of each culture were centrifuged at 18 000 rpm in a 55-34 rotor for 1.5 hours and the virus pellet resuspended in 100 μl buffer containing 50 mM Tris-HC1, pH 7.5; 35 mM KC1; 4 mM DTT; 1 mM EDTA; 1.3 % Triton X-100.50 μl samples were taken to the reverse transcriptase activity tests and analyzed in a 100 μl reaction mixture containing 75 mM Tris-HC1, pH 8.0; 60 mM KC1; 6.2 mM MgC12 ; 6 mM DTT; 0.5 mM EDTA; 0.65 % Triton X-100; 100 μg/ml BSA; 25 μCi/ml ^3 H-dTTP (spec activity 80 Ci/mmol); 2.5 μg/ml (dT)12-18 ; and 2.0 μg/ml (rA)n. Incubation was for 1 hour at 37° C. and the TCA-insoluble product precipitated onto Whatman GF/A filter papers, washed and dried, and counted in a liquid scintillation counter.
# DNA synthesis = conditions: Journal f. prakt. Chemie, Vol. 315, 895-900 (1973); cited from earlier work
# DNA polymerase of hepatitis B virus (HBV), sequence (P03156 whole entry): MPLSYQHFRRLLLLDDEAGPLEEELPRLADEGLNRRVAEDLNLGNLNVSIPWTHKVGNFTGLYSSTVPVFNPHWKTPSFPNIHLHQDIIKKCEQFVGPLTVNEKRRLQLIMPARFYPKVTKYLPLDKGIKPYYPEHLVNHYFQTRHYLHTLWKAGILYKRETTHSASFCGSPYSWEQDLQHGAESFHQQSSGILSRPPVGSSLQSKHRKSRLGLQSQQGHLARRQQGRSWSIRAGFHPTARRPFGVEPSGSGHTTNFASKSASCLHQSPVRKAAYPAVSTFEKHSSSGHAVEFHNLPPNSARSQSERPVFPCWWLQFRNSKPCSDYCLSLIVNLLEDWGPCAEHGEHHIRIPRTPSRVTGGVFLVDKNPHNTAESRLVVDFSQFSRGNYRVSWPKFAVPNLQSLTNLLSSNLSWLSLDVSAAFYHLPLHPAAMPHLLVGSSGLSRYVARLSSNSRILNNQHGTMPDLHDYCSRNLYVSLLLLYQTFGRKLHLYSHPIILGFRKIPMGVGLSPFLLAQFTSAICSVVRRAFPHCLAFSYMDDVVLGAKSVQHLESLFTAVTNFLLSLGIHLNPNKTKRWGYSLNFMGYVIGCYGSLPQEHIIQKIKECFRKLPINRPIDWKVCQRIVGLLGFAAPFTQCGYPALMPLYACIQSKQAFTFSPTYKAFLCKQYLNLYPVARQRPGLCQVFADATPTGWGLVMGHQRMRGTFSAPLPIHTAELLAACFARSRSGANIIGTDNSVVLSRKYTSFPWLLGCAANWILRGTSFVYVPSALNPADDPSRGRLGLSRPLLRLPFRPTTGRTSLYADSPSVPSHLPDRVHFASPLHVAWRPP
smiles,measurement,setting,value
Cc1cn([C@H]2C[C@H](F)[C@@H](CO)O2)c(=O)[nH]c1=O,apparent ID50-value,"[1]; from Table I, tested as 5'-triphosphate, 3 hours at 37° C.",0.16 µM
same,ID50-value with regard to the activity of HIV reverse transcriptase,"[2]; by extrapolation from Table II, tested as 5'-triphosphate",0.2 µM
same,Reverse transcriptase activity,"[3]; 0.01 μM, day 4 post-infection, untreated 0.9",0.5 cpm × 10^-3
same,Reverse transcriptase activity,"[3]; 0.01 μM, day 8 post-infection, untreated 19",1.3 cpm × 10^-3
same,Reverse transcriptase activity,"[3]; 0.01 μM, day 11 post-infection, untreated 17",1.9 cpm × 10^-3
same,Reverse transcriptase activity,"[3]; 0.01 μM, day 15 post-infection, untreated 11",2.7 cpm × 10^-3
same,Reverse transcriptase activity,"[3]; 0.01 μM, day 18 post-infection, untreated 27",28 cpm × 10^-3
same,Reverse transcriptase activity,"[3]; 0.01 μM, day 22 post-infection, untreated 46",52 cpm × 10^-3
same,Reverse transcriptase activity,"[3]; 0.01 μM, day 29 post-infection, untreated 16",21 cpm × 10^-3
same,effect on reverse transcriptase activity of HIV (in words),"[3]; 0.01 μM, up to 11 days",enzyme activity was not detected
same,Reverse transcriptase activity,"[3]; 0.05 μM, day 4 post-infection, untreated 0.9",0.3 cpm × 10^-3
same,Reverse transcriptase activity,"[3]; 0.05 μM, day 8 post-infection, untreated 19",0.3 cpm × 10^-3
same,Reverse transcriptase activity,"[3]; 0.05 μM, day 11 post-infection, untreated 17",0.4 cpm × 10^-3
same,Reverse transcriptase activity,"[3]; 0.05 μM, day 15 post-infection, untreated 11",0.6 cpm × 10^-3
same,Reverse transcriptase activity,"[3]; 0.05 μM, day 18 post-infection, untreated 27",0.5 cpm × 10^-3
same,Reverse transcriptase activity,"[3]; 0.05 μM, day 22 post-infection, untreated 46",1.6 cpm × 10^-3
same,Reverse transcriptase activity,"[3]; 0.05 μM, day 29 post-infection, untreated 16",3.1 cpm × 10^-3
same,effect on reverse transcriptase activity of HIV (in words),"[3]; 0.05 μM, up to 22 days",no significant enzyme activity was detected
same,effect on reverse transcriptase activity of HIV (in words),"[3]; 0.1 μM and higher concentrations, during at least 29 days",completely prevents the enzyme activity
same,Reverse transcriptase activity,"[3]; 0.1 μM, day 4 post-infection, untreated 0.9",0.2 cpm × 10^-3
same,Reverse transcriptase activity,"[3]; 0.1 μM, day 8 post-infection, untreated 19",0.2 cpm × 10^-3
same,Reverse transcriptase activity,"[3]; 0.1 μM, day 11 post-infection, untreated 17",0.5 cpm × 10^-3
same,Reverse transcriptase activity,"[3]; 0.1 μM, day 15 post-infection, untreated 11",0.4 cpm × 10^-3
same,Reverse transcriptase activity,"[3]; 0.1 μM, day 18 post-infection, untreated 27",0.4 cpm × 10^-3
same,Reverse transcriptase activity,"[3]; 0.1 μM, day 22 post-infection, untreated 46",0.2 cpm × 10^-3
same,Reverse transcriptase activity,"[3]; 0.1 μM, day 29 post-infection, untreated 16",0.2 cpm × 10^-3
same,Reverse transcriptase activity,"[3]; 0.5 μM, day 4 post-infection, untreated 0.9",0.3 cpm × 10^-3
same,Reverse transcriptase activity,"[3]; 0.5 μM, day 8 post-infection, untreated 19",0.3 cpm × 10^-3
same,Reverse transcriptase activity,"[3]; 0.5 μM, day 11 post-infection, untreated 17",0.5 cpm × 10^-3
same,Reverse transcriptase activity,"[3]; 0.5 μM, day 15 post-infection, untreated 11",0.3 cpm × 10^-3
same,Reverse transcriptase activity,"[3]; 0.5 μM, day 18 post-infection, untreated 27",0.6 cpm × 10^-3
same,Reverse transcriptase activity,"[3]; 0.5 μM, day 22 post-infection, untreated 46",0.1 cpm × 10^-3
same,Reverse transcriptase activity,"[3]; 0.5 μM, day 29 post-infection, untreated 16",0.2 cpm × 10^-3
same,Reverse transcriptase activity,"[3]; 1.0 μM, day 4 post-infection, untreated 0.9",0.3 cpm × 10^-3
same,Reverse transcriptase activity,"[3]; 1.0 μM, day 8 post-infection, untreated 19",0.2 cpm × 10^-3
same,Reverse transcriptase activity,"[3]; 1.0 μM, day 11 post-infection, untreated 17",0.5 cpm × 10^-3
same,Reverse transcriptase activity,"[3]; 1.0 μM, day 15 post-infection, untreated 11",0.4 cpm × 10^-3
same,Reverse transcriptase activity,"[3]; 1.0 μM, day 18 post-infection, untreated 27",0.5 cpm × 10^-3
same,Reverse transcriptase activity,"[3]; 1.0 μM, day 22 post-infection, untreated 46",0.1 cpm × 10^-3
same,Reverse transcriptase activity,"[3]; 1.0 μM, day 29 post-infection, untreated 16",0.2 cpm × 10^-3
same,cytostatic and virustatic activity,DNA synthesis,cytostatic and virustatic activity as selective inhibitor of DNA synthesis
Cc1cn([C@H]2C[C@H](F)[C@@H](COP(=O)(O)OP(=O)(O)OP(=O)(O)O)O2)c(=O)[nH]c1=O [3'-deoxy-3'-fluorothymidine-5'-triphosphate],inhibition at 1 µM,[1]; read-out: % inhibition of HBV DNA polymerase activity,88%
same,inhibition at 0.01 µM,[2]; 0.01 μM,12%
same,inhibition at 0.05 µM,[2]; 0.05 μM,27%
same,inhibition at 0.1 µM,[2]; 0.1 μM,38%
